Laboratory results: patent US20260325533A1, “CDK INHIBITOR COMPOUNDS” (ALEKSIA THERAPEUTICS, INC., priority 2023, published 2026)
Read-outs that look alike come from different tables or passages of the source.

Key:
Type in all cases: biochemical
CDK4/CCND3 = CDK4/CCND3 (Homo sapiens, UniProt P11802); assay: CDK4 homogeneous time-resolved fluorescence (HTRF) kinase assay; conditions: CDK4/CCND
In short: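 Inhibition of CDK4/CCND3 (1.5 nM) was measured at high ATP (1 mM) using 50 nM ULight-labelled 4E-BP1 Thr37/46 peptide; detection used 2 nM europium anti-phospho antibody after EDTA quench. IC50 values came from 11-point half-log titrations typically starting at 10 μM.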

CDK1/CCNB1 = CDK1/CCNB1 (Homo sapiens, UniProt P06493); assay: CDK1 homogeneous time-resolved fluorescence (HTRF) kinase assay; conditions: CDK1/CCNB
Sequence of CDK1/CCNB1 (P06493 whole entry): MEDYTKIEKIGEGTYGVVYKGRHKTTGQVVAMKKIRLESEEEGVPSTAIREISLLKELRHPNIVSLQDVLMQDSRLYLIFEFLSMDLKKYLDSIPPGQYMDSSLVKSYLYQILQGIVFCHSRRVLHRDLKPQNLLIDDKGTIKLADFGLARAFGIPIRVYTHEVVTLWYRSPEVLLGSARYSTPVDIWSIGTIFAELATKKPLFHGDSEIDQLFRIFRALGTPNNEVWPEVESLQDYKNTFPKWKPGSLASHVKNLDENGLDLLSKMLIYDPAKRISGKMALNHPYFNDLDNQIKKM
Sequence of CDK1/CCNB1 (P14635 whole entry partner): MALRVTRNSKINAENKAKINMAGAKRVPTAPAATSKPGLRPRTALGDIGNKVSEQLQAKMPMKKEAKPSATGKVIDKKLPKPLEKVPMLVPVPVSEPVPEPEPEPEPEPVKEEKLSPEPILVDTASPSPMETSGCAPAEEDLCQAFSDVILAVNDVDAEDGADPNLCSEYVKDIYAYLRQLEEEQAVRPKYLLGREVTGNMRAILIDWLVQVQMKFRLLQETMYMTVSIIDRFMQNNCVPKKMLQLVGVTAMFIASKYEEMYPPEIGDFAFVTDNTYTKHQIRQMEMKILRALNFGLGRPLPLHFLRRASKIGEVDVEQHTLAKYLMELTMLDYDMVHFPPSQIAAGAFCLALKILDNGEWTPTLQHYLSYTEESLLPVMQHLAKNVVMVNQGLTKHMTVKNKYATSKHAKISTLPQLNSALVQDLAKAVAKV
In short: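 Read-out: TR-FRET (Eu anti-phospho-4E-BP1 Thr37/46 antibody, 2 nM; 665 nm or 665/615 ratio) after 60 min phosphorylation of 50 nM ULight-peptide by 0.5 nM CDK1/CCNB1 at 1 mM ATP, 23 °C. Compound preincubated 20 min with enzyme; 1% DMSO.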

CDK2/CCNE1 = CDK2/CCNE1 (Homo sapiens, UniProt P24941); assay: CDK2 homogeneous time-resolved fluorescence (HTRF) kinase assay; conditions: CDK2/CCNE
In short: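 CDK2/CCNE1 (3 nM) preincubated 20 min at 23 °C with compound, then reacted 60 min at 23 °C with 1 mM ATP and 50 nM ULight-4E-BP1 (Thr37/46) peptide. Stopped with EDTA, phospho-peptide detected by Eu-anti-phospho antibody (665 nm or 665/615 ratio). IC50 from 11-point half-log titrations typically starting at 10 μM.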

CDK6/CCND1 = CDK6/CCND1 (Homo sapiens, UniProt Q00534); assay: CDK6 homogeneous time-resolved fluorescence (HTRF) kinase assay; conditions: CDK6/CCND
Sequence of CDK6/CCND1 (Q00534 whole entry): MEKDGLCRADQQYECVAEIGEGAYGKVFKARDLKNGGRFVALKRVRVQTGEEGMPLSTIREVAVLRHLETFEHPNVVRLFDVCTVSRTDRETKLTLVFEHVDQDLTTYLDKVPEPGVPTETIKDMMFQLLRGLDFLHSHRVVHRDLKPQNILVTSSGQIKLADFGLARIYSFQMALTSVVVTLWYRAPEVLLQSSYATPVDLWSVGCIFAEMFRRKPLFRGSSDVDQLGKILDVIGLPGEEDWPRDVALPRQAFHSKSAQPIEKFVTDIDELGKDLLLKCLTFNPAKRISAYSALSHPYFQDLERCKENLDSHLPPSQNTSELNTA
Sequence of CDK6/CCND1 (P24385 whole entry partner): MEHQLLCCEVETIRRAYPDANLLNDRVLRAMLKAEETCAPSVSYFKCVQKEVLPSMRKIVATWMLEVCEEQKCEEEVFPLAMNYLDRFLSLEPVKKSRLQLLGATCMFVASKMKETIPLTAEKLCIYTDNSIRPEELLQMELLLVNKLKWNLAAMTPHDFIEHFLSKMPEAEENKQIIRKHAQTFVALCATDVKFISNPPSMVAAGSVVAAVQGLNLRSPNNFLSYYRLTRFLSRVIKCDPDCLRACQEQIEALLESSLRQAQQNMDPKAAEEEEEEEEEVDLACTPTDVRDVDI
In short: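 1 nM enzyme, 1 mM ATP, 50 nM ULight-4E-BP1 (Thr37/46) peptide, 1% DMSO; 20 min compound preincubation, 60 min reaction, 23 °C. EDTA stop, 2 nM Eu-anti-phospho-4E-BP1 antibody 60 min. TR-FRET 665 nm (or 665/615 ratio); IC50 from 11-point half-log titration, top 10 μM.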

[1] = x = IC50 25-250 nM, read-out: CDK4/CCND IC50 (25-250 nM)
[2] = x = IC50 <25 nM, read-out: CDK2/CCNE IC50 (<25 nM)
[3] = x = IC50 25-250 nM, read-out: CDK6/CCND IC50 (25-250 nM)
[4] = >250 nM, read-out: CDK4/CCND IC50, >250 nM
[5] = >250 nM, read-out: CDK1/CCNB IC50 >250 nM
[6] = 25-250 nM, read-out: CDK2/CCNE IC50, 25-250 nM
[7] = >250 nM, 1 mM ATP, read-out: CDK6/CCND IC50, >250 nM
[8] = >250 nM marked x, read-out: CDK1/CCNB IC50 >250 nM
[9] = 25-250 nM marked x, read-out: CDK2/CCNE IC50 25-250 nM
[10] = <25 nM, read-out: CDK6/CCND IC50 <25 nM
[11] = <25 nM, read-out: CDK2/CCNE IC50, <25 nM

Sequence of CDK4/CCND3 (P11802 whole entry): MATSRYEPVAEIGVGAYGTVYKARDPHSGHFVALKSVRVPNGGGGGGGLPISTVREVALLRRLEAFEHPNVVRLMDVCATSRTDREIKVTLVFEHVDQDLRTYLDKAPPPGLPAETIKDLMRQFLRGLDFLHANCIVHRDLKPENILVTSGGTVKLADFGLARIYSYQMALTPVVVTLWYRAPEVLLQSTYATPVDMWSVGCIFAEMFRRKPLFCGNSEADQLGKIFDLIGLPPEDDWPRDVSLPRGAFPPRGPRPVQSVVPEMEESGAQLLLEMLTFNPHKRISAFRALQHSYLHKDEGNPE
Sequence of CDK4/CCND3 (P30281 whole entry partner): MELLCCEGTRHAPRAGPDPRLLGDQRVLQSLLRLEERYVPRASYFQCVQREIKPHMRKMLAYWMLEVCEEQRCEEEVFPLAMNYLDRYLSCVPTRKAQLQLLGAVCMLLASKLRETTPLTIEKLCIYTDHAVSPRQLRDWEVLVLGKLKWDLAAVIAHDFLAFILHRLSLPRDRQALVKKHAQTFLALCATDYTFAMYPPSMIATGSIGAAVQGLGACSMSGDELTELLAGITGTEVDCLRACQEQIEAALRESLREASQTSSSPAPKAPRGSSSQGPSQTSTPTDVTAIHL

| IC50 (CDK4/CCND3; [1]) | IC50 (CDK2/CCNE1; [2]) | IC50 (CDK4/CCND3; [4]) | IC50 (CDK1/CCNB1; [5]) | IC50 (CDK6/CCND1; [7]) | IC50 (CDK2/CCNE1; [11]) | Structure (SMILES) | other results |
| --- | --- | --- | --- | --- | --- | --- | --- |
| 25 to 250 nM | < 25 nM |  |  |  |  | Cc1c(-c2nccc3cnc(Nc4ccc(S(C)(=O)=O)c(O)c4)cc23)ccc2c1cnn2CCO [Ex 616, 5-((5-(1-(2-hydroxyethyl)-4-methyl-1H-indazol-5-yl)-2,6-naphthyridin-3-yl)amino)-2-(methylsulfonyl)phenol] | IC50 (CDK1/CCNB1; x = IC50 >250 nM, read-out: CDK1/CCNB IC50 (>250 nM column)): > 250 nM; IC50 (CDK6/CCND1; [3]): 25 to 250 nM |
|  |  | > 250 nM | > 250 nM | > 250 nM |  | Cc1c(-c2nccc3cnc(Nc4ccc(NS(=O)(=O)c5ccc(N6CCOCC6)cc5)cc4)cc23)ccc2c1cnn2CC(C)(C)O [Ex 786, N-(4-((5-(1-(2-hydroxy-2-methylpropyl)-4-methyl-1H-indazol-5-yl)-2,6-naphthyridin-3-yl)amino)phenyl)-4-morpholinobenzenesulfonamide] | IC50 (CDK2/CCNE1; [6]): 25 to 250 nM |
|  |  |  |  |  |  | CS(=O)(=O)N1CCC(Nc2cc3c(N4CC(O)C4)nccc3cn2)CC1 [Ex 51, 1-(7-((1-(methylsulfonyl)piperidin-4-yl)amino)-2,6-naphthyridin-1-yl)azetidin-3-ol] | IC50 (CDK4/CCND3; 25-250 nM marked x, read-out: CDK4/CCND IC50 25-250 nM): 25 to 250 nM; IC50 (CDK1/CCNB1; [8]): > 250 nM; IC50 (CDK2/CCNE1; [9]): 25 to 250 nM; IC50 (CDK6/CCND1; [10]): < 25 nM |
|  |  | > 250 nM | > 250 nM | > 250 nM |  | Cn1cc(Nc2cc3c(C#Cc4ccc(C#N)cc4)nccc3cn2)cn1 [Ex 943, 4-((7-((1-methyl-1H-pyrazol-4-yl)amino)-2,6-naphthyridin-1-yl)ethynyl)benzonitrile] | IC50 (CDK2/CCNE1; [6]): 25 to 250 nM |
|  |  |  |  |  | < 25 nM | CS(=O)(=O)c1ccc(Nc2cc3c(C#CC45CC(C(N)=O)(C4)C5)nccc3cn2)cc1 (racemic) [Ex 945, 3-((7-((4-(methylsulfonyl)phenyl)amino)-2,6-naphthyridin-1-yl)ethynyl)bicyclo[1.1.1]pentane-1-carboxamide] | IC50 (CDK4/CCND3; 25-250 nM, read-out: CDK4/CCND IC50, 25-250 nM): 25 to 250 nM; IC50 (CDK1/CCNB1; 25-250 nM, read-out: CDK1/CCNB IC50, 25-250 nM): 25 to 250 nM; IC50 (CDK6/CCND1; 25-250 nM, 1 mM ATP, read-out: CDK6/CCND IC50, 25-250 nM): 25 to 250 nM |
| 25 to 250 nM | < 25 nM |  |  |  |  | CC(C)S(=N)(=O)c1ccc(Nc2cc3c(C#Cc4ccc5c(c4)NC(=O)C54CCC4)nccc3cn2)cc1 (single isomer, unassigned) [Ex 383, 6'-((7-((4-(propan-2-ylsulfonimidoyl)phenyl)amino)-2,6-naphthyridin-1-yl)ethynyl)spiro[cyclobutane-1,3'-indolin]-2'-one] | IC50 (CDK1/CCNB1; x = IC50 25-250 nM, read-out: CDK1/CCNB IC50 (25-250 nM)): 25 to 250 nM; IC50 (CDK6/CCND1; [3]): 25 to 250 nM |
|  |  |  |  |  |  | CN1CCN(c2nccc3cnc(NC4CCN(S(C)(=O)=O)CC4)cc23)CC1 [Ex 29, 5-(4-methylpiperazin-1-yl)-N-(1-(methylsulfonyl)piperidin-4-yl)-2,6-naphthyridin-3-amine] | IC50 (CDK4/CCND3; <25 nM, read-out: CDK4/CCND IC50 <25 nM): < 25 nM; IC50 (CDK1/CCNB1; [8]): > 250 nM; IC50 (CDK2/CCNE1; [9]): 25 to 250 nM; IC50 (CDK6/CCND1; [10]): < 25 nM |
|  |  | > 250 nM | > 250 nM | > 250 nM | < 25 nM | Cc1c(-c2nccc3cnc(Nc4cnc(O)c(N5CCN(CCO)CC5)c4)cc23)ccc2c1cnn2CC(C)(C)O [Example 887, 5-((5-(1-(2-hydroxy-2-methylpropyl)-4-methyl-1H-indazol-5-yl)-2,6-naphthyridin-3-yl)amino)-3-(4-(2-hydroxyethyl)piperazin-1-yl)pyridin-2-ol] |  |
| 25 to 250 nM | < 25 nM |  |  |  |  | CC1(C)C(=O)Nc2cc(C#Cc3nccc4cnc(Nc5ccc(S(=O)(=O)C6CC6)cc5)cc34)ccc21 [Ex 444, 6-((7-((4-(cyclopropylsulfonyl)phenyl)amino)-2,6-naphthyridin-1-yl)ethynyl)-3,3-dimethylindolin-2-one] | IC50 (CDK1/CCNB1; x = IC50 <25 nM, read-out: CDK1/CCNB IC50 (<25 nM)): < 25 nM; IC50 (CDK6/CCND1; x = IC50 >250 nM, read-out: CDK6/CCND IC50 (>250 nM column)): > 250 nM |
|  |  | > 250 nM | > 250 nM | > 250 nM | < 25 nM | Cc1c(-c2nccc3cnc(Nc4ccc(S(=O)(=O)Nc5nc(F)cc(F)n5)cc4)cc23)ccc2c1cnn2CC(C)(C)O [Ex 868, N-(4,6-difluoropyrimidin-2-yl)-4-((5-(1-(2-hydroxy-2-methylpropyl)-4-methyl-1H-indazol-5-yl)-2,6-naphthyridin-3-yl)amino)benzenesulfonamide] |  |
